Measured values as given in ChEMBL document CHEMBL1128630, “Alkoxy substituted benzisothiazolone (BIT) derivatives: potent inhibitors of human leukocyte elastase” (Bioorg Med Chem Lett, 1995).

Test: Half life measured in vitro for its stability in human blood
Format: ADME, tissue-based

| half-life [min] | SMILES |
| --- | --- |
| 10 | CCOc1cccc2c1C(=O)N(COC(=O)c1c(Cl)cccc1Cl)S2(=O)=O |
| 98 | CCOc1cc(OCC)c2c(c1)S(=O)(=O)N(COC(=O)c1c(Cl)cccc1Cl)C2=O |
| 30 | COc1cc(OC)c2c(c1)S(=O)(=O)N(COC(=O)c1c(Cl)cccc1Cl)C2=O |
| 5 | COc1ccc2c(c1)S(=O)(=O)N(COC(=O)c1c(Cl)cccc1Cl)C2=O |
